Test results as given in US9657022B2, “7-OXO-1,6-diazabicyclo[3.2.1]octane derivatives and their use as antibacterial agents” (WOCKHARDT LIMITED, priority 2014, dated 2017).
≈ marks a conversion by molar mass, not a printed value. Like-named read-outs stand apart in the source and are kept apart here.

Tests used:
[1] = test system: E. coli NCTC 13353 (CTX-M15, OXA-1); assay: Antibacterial activity (MIC), agar dilution per CLSI; assay type: cell-based; conditions: Escherichia coli
Procedure: (§1) The biological activity of representative compounds according to the invention against various bacterial strains was investigated. In a typical study, overnight grown bacterial cultures were diluted appropriately and inoculated on the agar media containing doubling dilutions of the test compounds. Observations for growth or no growth was performed after 16-20 hours of incubation at 35±2° C. in the ambient air. The overall procedure was performed as per Clinical and Laboratory Standards Institute (CLSI) recommendations, (Clinical and Laboratory Standards Institute (CLSI), Performance Standards for Antimicrobial Susceptibility Testing, 20th Informational Supplement, M07-A9, Volume 32, No. 2, 2012). Molten Mueller Hinton Agar (BD, USA) containing serial dilutions of each antibacterial agent were poured on to the plates and allowed to solidify. Appropriate suspensions from the freshly grown cultures were prepared in normal saline so that about 10^4 CFU/spot of the organism was delivered on to the drug containing agar plates using automated multipoint inoculator (Mast, UK). The plates were incubated in Biochemical oxygen demand (BOD) incubator at 37° C. for 18 hours and then examined for growth.
(§2) The strains selected for study included E. coli NCTC 13353 producing CTX-M15 and OXA-1 beta-lactamase enzymes; K. pneumoniae H521 producing KPC, SHV, TEM beta-lactamase enzymes; and K. pneumoniae S48 producing NDM, SHV, TEM beta-lactamase enzymes. The activities are expressed as Minimum Inhibitory Concentrations (MICs) (mcg/ml).
(§3) The activities are expressed as Minimum Inhibitory Concentrations (MICs) (mcg/ml).

[2] = test system: K. pneumoniae H521 (KPC, SHV, TEM); assay: as above; assay type: cell-based; conditions: Klebsiella pneumoniae
Procedure: as §1, §2, §3

[3] = test system: K. pneumoniae S48 (NDM, SHV, TEM); assay: as above; assay type: cell-based; conditions: Klebsiella pneumoniae
Procedure: as §1, §2

[4] = target: T1, Class A beta-lactamase SHV 18 (K. pneumoniae ATCC 700603) (Klebsiella pneumoniae, UniProt P0AD64, E235K/G234A/I4F/R39S); assay: Beta-lactamase enzyme inhibition (Nitrocefin, crude enzyme); assay type: biochemical; conditions: Beta-lactamase enzyme inhibition IC50, Class A, K. pneumoniae ATCC 700603 (SHV 18)
T1 sequence (P0AD64 1-286 I4F/R39S/G234A/E235K): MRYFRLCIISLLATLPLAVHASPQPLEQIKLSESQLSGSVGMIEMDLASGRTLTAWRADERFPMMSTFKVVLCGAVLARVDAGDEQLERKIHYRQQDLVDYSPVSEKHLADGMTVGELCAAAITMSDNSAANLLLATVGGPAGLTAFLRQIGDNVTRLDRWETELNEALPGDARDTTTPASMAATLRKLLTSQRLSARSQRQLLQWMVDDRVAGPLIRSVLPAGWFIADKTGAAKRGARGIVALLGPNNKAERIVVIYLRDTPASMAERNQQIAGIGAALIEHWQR
Procedure: (§4) Absorbance was measured at 485 nm by UV-spectrophotometer. The IC50 was calculated by plotting absorbance against concentration through Sigmoidal dose response curve using Graph Pad software.
(§5) The enzyme inhibition was expressed as IC50.

[5] = test system: Class C beta-lactamase CMY/DHA (E. coli M50); assay: as above; assay type: biochemical
Procedure: as §4, §5

[6] = target: T2, Class D beta-lactamase OXA 23 (A. baumannii NCTC 13301) (Acinetobacter baumannii, UniProt Q9L4P2); assay: as above; assay type: biochemical; conditions: Class D, A. baumannii NCTC 13301 (OXA 23); read-out: Beta-lactamase enzyme inhibition IC50
T2 construct: preincubated mixture of crude enzyme and the compounds; endogenous in cells; host or cells: A. baumannii NCTC 13301
T2 sequence (Q9L4P2 18-273): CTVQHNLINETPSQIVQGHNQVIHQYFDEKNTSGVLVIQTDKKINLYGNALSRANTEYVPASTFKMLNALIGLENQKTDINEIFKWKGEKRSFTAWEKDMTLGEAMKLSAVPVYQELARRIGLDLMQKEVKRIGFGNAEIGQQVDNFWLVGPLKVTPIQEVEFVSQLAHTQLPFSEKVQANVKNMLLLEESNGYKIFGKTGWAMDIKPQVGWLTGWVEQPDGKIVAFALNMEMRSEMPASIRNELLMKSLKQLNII
Procedure: as §4, §5

[7] = NCTC13353, E. coli NCTC 13353 (CTX-M15, OXA-1), read-out: MIC
[8] = K. pneumoniae H521 (KPC, SHV, TEM), read-out: MIC

SMILES | MIC [1, 7] [µg/mL] | MIC [2, 8] [µg/mL] | MIC [3] [µg/mL] | IC50 [4] [nM] | IC50 [5] [nM] | IC50 [6] [nM] | MIC ([3]; K. pneomoniae S48 (NDM, SHV, TEM), read-out: MIC) [µg/mL] | MIC ([1]; NCTC13353) [µg/mL] | MIC [2] [µg/mL] | MIC ([1]; NCTC13353, 18 h) [µg/mL] | MIC ([2]; 18 h) [µg/mL] | MIC ([3]; 18 h) [µg/mL]
O=C(CC1CNCCN1)NNC(=O)[C@@H]1CC[C@@H]2CN1C(=O)N2OS(=O)(=O)O (mixture of isomers) [Example 7, (2S,5R)-sulfuric acid mono-{2-[N′-(2-(RS)-piperazin-2-yl-acetyl)-hydrazinocarbonyl]-7-oxo-1,6-diaza-bicyclo[3.2.1]oct-6-yl}ester] | 2 | 4 | 2 | 67 | 70 | 2840 |  |  |  |  |  | 
CC(C)(O/N=C(\C(=O)N[C@@H]1C(=O)N2C(C(=O)[O-])=C(C[n+]3ccccc3)CS[C@H]12)c1csc(N)n1)C(=O)O [Ceftazidime, ceftazidime, reference compound] | 32 (≈ 58.5 µM) | > 32 |  |  |  |  | > 32 |  |  |  |  | 
O=C(C[C@H]1CCCCN1)NNC(=O)[C@@H]1CC[C@@H]2CN1C(=O)N2OS(=O)(=O)O [Example 4, (2S,5R)-sulfuric acid mono-{2-[N′-(2-(R)-piperidin-2-yl-acetyl)-hydrazinocarbonyl]-7-oxo-1,6-diaza-bicyclo[3.2.1]oct-6-yl}ester] |  |  | 2 (≈ 4.93 µM) | 170 | 56 | 2930 |  | 2 (≈ 4.93 µM) | 4 (≈ 9.87 µM) |  |  | 
O=C(C[C@@H]1CCCNC1)NNC(=O)[C@@H]1CC[C@@H]2CN1C(=O)N2OS(=O)(=O)O [Example 5, (2S,5R)-sulfuric acid mono-{2-[N′-(2-(S)-piperidin-3-yl-acetyl)-hydrazinocarbonyl]-7-oxo-1,6-diaza-bicyclo[3.2.1]oct-6-yl}ester] |  |  |  | 160 |  | 1730 |  |  |  | 0.5 (≈ 1.23 µM) | 4 (≈ 9.87 µM) | 1 (≈ 2.47 µM)
O=C(CC1CCNCC1)NNC(=O)[C@@H]1CC[C@@H]2CN1C(=O)N2OS(=O)(=O)O [Example 6, (2S,5R)-sulfuric acid mono-{2-[N′-(2-piperidin-4-yl-acetyl)-hydrazinocarbonyl]-7-oxo-1,6-diaza-bicyclo[3.2.1]oct-6-yl}ester] |  |  | 1 (≈ 2.47 µM) | 60 | 37 | 1620 |  | 0.5 (≈ 1.23 µM) | 2 (≈ 4.93 µM) |  |  | 
C[C@@H](O)[C@H]1C(=O)N2C(C(=O)O)=C(SCCN=CN)C[C@H]12 [Imipenem, imipenem, reference compound] | 0.25 (≈ 0.835 µM) |  |  |  |  |  |  |  |  |  |  | 
